Measured values taken from paper PMC8710297, “Identification of potent SENP1 inhibitors that inactivate SENP1/JAK2/STAT signaling pathway and overcome platinum drug resistance in ovarian cancer” (Clinical and Translational Medicine, 2021).

How the values were obtained:
IGROV1 CR cells [1] = experiment: Viability of IGROV1 CR cells treated with compound alone (SRB); assay type: cell-based; details: 48 hrs
Procedure: Cel l proliferation was determined by SR B assay. (B) Viability of IG ROV 1 CR cells treated by indicated compounds fo r 48 hrs. SRB assay wa s used to determine cell viabil ity. […]
1. Antibodies and re a ge nt s […]
[…] Momordin Ic ( A14773; Adooq Biosc ience) was dissolved in DMSO. Ursolic acid (A10961; Adooq Bioscience) wa s dissolved in DMSO. Collection of Mc natural compound an alogs were pu rch ase d fro m Sigma. Detailed proced ure to sy nt h e s ize UA derivatives was in c lu d ed in suppleme ntal material and methods.
2. Cell culture and resistance cell line establishment […]
were cultured at 37 °C in DM EM with 10% Fe ta l Bovine Serum (F BS). All th e cells were cultured at in a humidified incubator with 5% CO2 atmo s phe re.
3. In vitro SUMOylation and de‐SU MOylation assays
The SUMO yl ation re ac tions were performed according to th e manufacture’s instruction (BML‐UW8955‐ 0001; ENZO) and were described previously (1) . Briefly, 200 nM of purified HIS‐JAK 2 wa s mixed wit h reco mbinant SUMOs in reac ti on bu ffer (20 μl) containing Mg‐ AT P, SUMO E1, and SUMO E2, followed by incubation at 37°C fo r 60 min. […]
Cell viability was detected using Sulforhodamine B (SRB) assay as described previously (3).
Absorbance at 51 0 nm was detected using a SpectraMax Re a d e r (Molecular Devices) and an alyzed with SoftMax Analys is Software (Molecular Devices). […]

IGROV1 CR cells [2] = experiment: Drug synergy screening: SRB proliferation assay with 2 μM cisplatin; assay type: cell-based
Procedure: (A) Collection of Momordin Ic (Mc) natural compound analogues. […] Cell proliferation was determined by the sulforhodamine B (SRB) assay. […] IGROV1 CR cells were incubated with Mc at indicated concentrations for 48 h and then harvested for Western blot for indicated proteins. […] IGROV1 CR cells were incubated with UA and then treated as in C. […] Intensity of SUMOylated JAK2 was measured by Quantity One software. […] Recombinant His‐JAK2 was SUMOylated by in vitro SUMOylation assay, and then SUMOylated JAK2 proteins were incubated with or without recombinant GST‐SENP1 together with Mc for 3 h. […] In vitro assay was performed as in (F). […]

| Compound | toxicity to cells of compound alone (IGROV1 CR cells [1]) | IC50 of UA derivatives to inhibit resistant cells together with cisplatin (in words) (IGROV1 CR cells [2]) |
| --- | --- | --- |
| C[C@H]1[C@H](C)CC[C@]2(C(=O)OCCNC(=O)OC(C)(C)C)CC[C@]3(C)C(=CC[C@@H]4[C@@]5(C)CC[C@H](O)C(C)(C)[C@@H]5CC[C@]43C)[C@H]12 [UAMMC3] | higher toxicity | lower IC50 |
| C[C@H]1[C@H](C)CC[C@]2(C(=O)OCC(=O)NCCO)CC[C@]3(C)C(=CC[C@@H]4[C@@]5(C)CC[C@H](O)C(C)(C)[C@@H]5CC[C@]43C)[C@H]12 [UAMMC5] | higher toxicity | lower IC50 |
